pIC50: −log10 of the molar value. Several values for one entry are separate records, joined by “and”; a condition that tells them apart may be missing. Equal values may be shown once. Read-outs that look alike come from different tables or passages of the source.
Tests used:
DC-3F/ADII = test: SRB cytotoxicity, DC-3F/ADII; type: cell-based, hamster; conditions: Mesocricetus auratus, DC3F
Procedure: (§1) The DC-3F hamster lung fibroblast cell line and its actinomycin D-selected sublines (DC-3F/ADII and DC-3F/ADX) were obtained from the Memorial Sloan-Kettering Cancer Center (MSKCC).
(§2) The drug-resistant cell lines were continuously cultured in the presence of the selecting agent, AD, DX, VBL or VM to maintain the drug resistant phenotypes. […] All cells were cultured in RPMI 1640-10% FBS at 37° C. 5% CO2 (see below).
(§3) The cytotoxicity of the drug toward the monolayer cell cultures (such as DC-3F, MCF-7, SK-N-As and sublines) was determined in 96-well microtiter plates by the SRB method as described by Skehan and co-workers (Skehan, P., et al., J. Natl. Cancer Inst. 1990, 82, 1107-1112) for measuring the cellular protein content. Cultures were fixed with trichloroacetic acid and then stained for 30 min with 0.4% suforhodamine B dissolved in 1% acetic acid. Unbound dye was removed by acetic acid washes, and the protein-bound dye was extracted with an unbuffered Tris base (tris(hydroxy-methyl)aminomethane) for determination of absorbance at 570 nm in a 96-well microtiter plate reader. The experiments were carried out in duplicate. Each run entailed six to seven concentrations of the tested drugs. Data were analyzed with the median-effect plot (Chou, T.-C. & Talalay, P. T. (1984) Adv. Enzyme Regul. 22, 27-55) using a previously described computer program (Chou, J., & Chou T.-C. 1987, Dose-effect analysis with microcomputers: Quantitation of ED50, synergism, antagonism, low-dose risk, reception-ligand binding and enzyme kinetics, IBM-PC software and manual, Biosoft, Cambridge, U.K.).
(§4) Concerning Table 3, experiments were carried out using the cell lines DC-3F (parent hamster lung cells), DC-3F/ADII (moderate multidrug-resistant (MDR) cells) and DC-3F/ADX (very strong MDR cells).

CCRF-CEM/Taxol® = test: cells; type: cell-based, human
Procedure: as §2
(§5) The cells were cultured at an initial density of 5×10^4 cells/mL. They were maintained in a 5% CO2-humidified atmosphere at 37° C. in RPMI-1640 medium (GIBCO-BRL, Gaithersburg, Md.) containing penicillin (100 U/mL), streptomycin ([…]) (GIBCO-BRL) and 10% heat inactivate fetal bovine serum. Culture for cell suspension (such as for CCRF-CEM, P388 and sublines), were performed by the XTT-microculture tetrazonium method (Scudiero, D. A. et al., Cancer Res. 1988, 48, 4827-4833) in duplicate in 96-well microtiter plates.
(§6) 2′,3′-Bis(methoxy-4-nitro-5-sufophenyl)-5-[(phenylamino)carbonyl]2H-tetrazolium hyudroxide (XTT) was prepared at 1 mg/mL in prewarmed (37° C.) medium without serum. Phenazine methosulfate (PMS) and fresh XTT were mixed together to obtain 0.025 mM PMS-XTT solution (25 μL of the stock 5 mM PMS was added per 5 mL of 1 mg/mL XTT). Following a 72 h incubation, 50 μL of the assay aliquots were added to each well of the cell culture. After incubation at 37° C. for 4 h, absorbance at 450 nm and 630 nm was measured with a microplate reader (EL340, Bio-Tek Instruments, Inc., Winooski, Vt.).

CCRF-CEM/VBL100 = test: cells; type: cell-based, human; conditions: for pIC50: Homo sapiens, CCRF-CEM
Procedure: as §2, §5, §6

CCRF-CEM/VM1 = test: cells; type: cell-based, human
Procedure: as §2, §5, §6

[1] = test system: PC-3 Human Prostate Carcinoma; test: PC-3 xenograft; type: in vivo, nude mice
[2] = test system: MDR human mammary adenocarcinoma MCF-7/Adr xenograft; test: in vivo; conditions: MCF-7/Adr; i.v. infusion (order wraps over rows r16-r17)
Procedure: DMSO was used as a vehicle for epothilones. Each mouse received ≦40 μL DMSO in all experiments.
Athymic nude mice (nu/nu) were used for MX-1 and MCF-7/Adr human mammary carcinoma xenografts. Mice were obtained from Taconic Laboratory Animals and Service (Germantown, N.Y.: outbred, Swiss background).

[3] = test system: CCRF-CEM human T-cell acute lymphoblastic leukemia cell line; test: XTT cytotoxicity (cell growth inhibition), CCRF-CEM
Procedure: as §1, §2, §5, §6

DC-3F/ADX = test: cells; type: cell-based, hamster; conditions: DC3F/ADX, Table 3
Procedure: as §1, §2, §3, §4

[4] = test system: A549 Human Lung Carcinoma; test: A549 xenograft; type: in vivo, nude mice
[5] = test system: DC-3F hamster lung fibroblast cell line; test: SRB cytotoxicity, DC-3F; type: cell-based; conditions: Mesocricetus auratus, DC3F, Table 3
Procedure: as §1, §2, §3

[6] = Homo sapiens, CCRF-CEM, 72 h, Table 1A, XTT
[7] = Homo sapiens, CCRF-CEM, Table 5, single determinations
[8] = Homo sapiens, CCRF-CEM, read-out: IC50 (mean ± of determinations, in parentheses), Table 5
[9] = Table 5, single determinations, listed as VP-16
[10] = dEpoB 30 mg/kg 18 hr i.v. infusion, Taxol 16 mg/kg 6 hr infusion, VBL 2 and VP-16 25 mg/kg i.v. inj
[11] = Q2D x 3: dEpoB 30 mg/kg 18 hr i.v. infusion, Taxol 15 mg/kg 6 hr infusion, VBL 2 and VP-16 25 mg/kg i.v. inj

COc1cc([C@@H]2c3cc4c(cc3[C@@H](O[C@@H]3O[C@@H]5CO[C@@H](C)O[C@H]5[C@H](O)[C@H]3O)[C@H]3COC(=O)[C@H]23)OCO4)cc(OC)c1O [Etoposide, etoposide]
pIC50 (DC-3F/ADII): 6.20
pIC50 (CCRF-CEM/Taxol®; Homo sapiens, CCRF-CEM, 72 h): 5.88
(C)/(A) IC50 ratio (CCRF-CEM/Taxol®; Table 1A, CCRF-CEM/Taxol vs CCRF-CEM): 4.5
Potency in parentheses relative to Epo B in CCRF-CEM cells (CCRF-CEM/VBL100; CCRF-CEM/VBL MDR cells): 1/29514
Potency in square brackets relative to Epo B in CCRF-CEM/VBL MDR cells (CCRF-CEM/VBL100; CCRF-CEM/VBL MDR cells): 1/4919
pIC50 (CCRF-CEM/VBL100): 4.99
pIC50 (CCRF-CEM/VBL100; 72 h, Table 1A, XTT): 4.99
pIC50 (CCRF-CEM/VBL100; Table 2, CCRF-CEM/VLB): 5.13
pIC50 (CCRF-CEM/VBL100; read-out: IC50 (mean ± of determinations, in parentheses), Table 5): 4.99
(B)/(A) IC50 ratio (CCRF-CEM/VBL100; Table 1A, CCRF-CEM/VBL100 vs CCRF-CEM): 35
relative resistance (fold) vs parent cell line (CCRF-CEM/VBL100; Table 5): (35.3X)
fold resistance vs parent CCRF-CEM (CCRF-CEM/VM1; CCRF-CEM/VM1 cells): 117 fold
pIC50 (CCRF-CEM/VM1; [6]): 4.46
pIC50 (CCRF-CEM/VM1; Homo sapiens, CCRF-CEM, Table 2, CCR-CEM/VM-1): 4.46
pIC50 (CCRF-CEM/VM1; [7]): 4.46
pIC50 (CCRF-CEM/VM1; [8]): 4.46
(D)/(A) IC50 ratio (CCRF-CEM/VM1; Table 1A, CCRF-CEM/VM1 vs CCRF-CEM): 117
relative resistance (fold) vs parent cell line (CCRF-CEM/VM1; Table 5): (117.4X)
pIC50 (CCRF-CEM/VM1; [9]): 4.37 and 4.59
Therapeutic effect Rank Order ([1]; PC-3, i.v. infusion (order wraps over rows r24-r25)): dEpoB >> VP-16
Average Body Weight (change), Day 9 [1, 10]: +0.3 g
Average Body Weight (change), Day 11 [1, 10]: -0.1 g
Average Body Weight (change), Day 13 [1, 10]: -2.4 g
Average Tumor Size (TC), Day 9 [1, 10]: 1.00 TC
Average Tumor Size (TC), Day 11 [1, 10]: 1.12 TC
Average Tumor Size (TC), Day 13 [1, 10]: 0.88 TC
Tumor Disappearance [1, 10]: 0/3
Average Body Weight, Day 5 ([1]; initial weight, dEpoB 30 mg/kg 18 hr i.v. infusion, Taxol 16 mg/kg 6 hr infusion, VBL 2 and VP-16 25 mg/kg i.v. inj): 24.9 g
Therapeutic effect Rank Order [2]: dEpoB >> VP-16,
pIC50 ([3]; Homo sapiens, CCRF-CEM): 6.54
pIC50 [3, 6]: 6.54
pIC50 ([3]; Homo sapiens, CCRF-CEM, Table 2): 6.66
pIC50 [3, 7]: 6.59
pIC50 [3, 8]: 6.53
pIC50 [3, 9]: 6.49 and 6.53
pIC50 (DC-3F/ADX): 4.92
Therapeutic effect Rank Order ([4]; A549, i.v. infusion): Taxol ®, dEpoB, VBL > VP-16
Average Body Weight (change), Day 11 [4, 11]: +0.1 g
Average Body Weight (change), Day 13 [4, 11]: -0.2 g
Average Body Weight (change), Day 15 [4, 11]: -2.2 g
Tumor Disappearance [4, 11]: 0/3
Average Tumor Size, Day 11 ([4]; Q2D x 3: dEpoB 30 mg/kg 18 hr i.v. infusion, Taxol 15 mg/kg 6 hr infusion, VBL 2 and VP-16 25 mg/kg i.v. inj, control 96): 59 mm^3
Average Tumor Size, Day 13 ([4]; Q2D x 3: dEpoB 30 mg/kg 18 hr i.v. infusion, Taxol 15 mg/kg 6 hr infusion, VBL 2 and VP-16 25 mg/kg i.v. inj, control 128): 150 mm^3
Average Tumor Size, Day 15 ([4]; Q2D x 3: dEpoB 30 mg/kg 18 hr i.v. infusion, Taxol 15 mg/kg 6 hr infusion, VBL 2 and VP-16 25 mg/kg i.v. inj, control 306): 275 mm^3
Average Tumor Size, Day 17 ([4]; Q2D x 3: dEpoB 30 mg/kg 18 hr i.v. infusion, Taxol 15 mg/kg 6 hr infusion, VBL 2 and VP-16 25 mg/kg i.v. inj, control 553): 536 mm^3
Average Body Weight, Day 7 ([4]; initial weight, Q2D x 3: dEpoB 30 mg/kg 18 hr i.v. infusion, Taxol 15 mg/kg 6 hr infusion, VBL 2 and VP-16 25 mg/kg i.v. inj): 27.2 g
pIC50 [5]: 7.47
